{
  "source": "patent US20100113415A1",
  "about": "“EPHA4 RTK INHIBITORS FOR TREATMENT OF NEUROLOGICAL AND NEURODEGENERATIVE DISORDERS AND CANCER” (priority 2008, published 2010)",
  "key": {"[1]": {"target": "T1, human form of EphA4 receptor over-expressed in CHO-K1 cells (Homo sapiens, UniProt P54764)", "T1 construct": "expressed in transfected cells; host or cells: CHO-K1", "T1 sequence (P54764 20-986)": "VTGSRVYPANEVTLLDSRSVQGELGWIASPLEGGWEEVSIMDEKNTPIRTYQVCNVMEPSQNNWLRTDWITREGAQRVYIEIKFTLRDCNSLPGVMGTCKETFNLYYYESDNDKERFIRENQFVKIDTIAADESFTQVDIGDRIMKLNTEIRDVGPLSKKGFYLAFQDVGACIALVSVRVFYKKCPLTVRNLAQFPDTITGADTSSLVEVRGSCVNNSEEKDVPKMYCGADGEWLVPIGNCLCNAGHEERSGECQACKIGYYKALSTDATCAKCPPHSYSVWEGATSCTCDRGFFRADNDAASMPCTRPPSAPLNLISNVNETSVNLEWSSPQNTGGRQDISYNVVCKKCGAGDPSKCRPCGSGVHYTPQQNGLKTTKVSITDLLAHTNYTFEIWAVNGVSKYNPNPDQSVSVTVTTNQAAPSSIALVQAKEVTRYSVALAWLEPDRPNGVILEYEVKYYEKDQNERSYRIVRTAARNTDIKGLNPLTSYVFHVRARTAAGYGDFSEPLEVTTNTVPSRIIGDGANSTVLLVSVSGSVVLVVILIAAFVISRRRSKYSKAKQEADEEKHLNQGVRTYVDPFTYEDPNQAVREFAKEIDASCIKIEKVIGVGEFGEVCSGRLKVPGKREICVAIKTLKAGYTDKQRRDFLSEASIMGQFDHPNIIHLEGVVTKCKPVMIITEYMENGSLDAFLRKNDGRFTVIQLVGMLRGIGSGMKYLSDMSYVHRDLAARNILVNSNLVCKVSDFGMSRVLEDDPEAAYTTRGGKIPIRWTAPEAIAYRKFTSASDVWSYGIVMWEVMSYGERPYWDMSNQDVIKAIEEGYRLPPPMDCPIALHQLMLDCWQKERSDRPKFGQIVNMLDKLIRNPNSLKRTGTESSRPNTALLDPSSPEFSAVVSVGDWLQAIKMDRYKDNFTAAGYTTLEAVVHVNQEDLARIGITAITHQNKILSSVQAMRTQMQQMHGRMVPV", "assay": "EphA4 cell-based assay (pGAS-Luc luciferase reporter in EphA4-transfected CHO-K1 cells)", "conditions": "for IC50: inflexion point, luciferase, read-out: EphA4 Cell Assay IP; for EphA4 Cell Assay maximum percent inhibition: value in parentheses", "excerpt": "A cell-based assay was used to measure the potency of the compounds on the human form of EphA4 receptor over-expressed in Chinese Hamster Ovary cell line, CHO-K1 cells (Merck Collection). The cell assay was based on a novel signaling pathway of EphA4, which involves activation of the tyrosine kinase Jak2 and the transcriptional activator Stat3 (39).\nReagents: The expression constructs of EphA4 were subcloned into the expression vector pCMV6-XL5 (Origene, MD, USA) (clone from Merck Kinase Library). The luciferase construct that was linked to the Stat1-responsive enhancer (pGAS-Luc) was bought from Stratagene (USA). The renilla construct that linked to an empty vector CMV was bought from Promega (USA).\nTransfection and Luciferase Assay: CHO-K1 cells were plated in T-175 cell culture bottle in DMEM medium supplemented with 10% fetal bovine serum, 1 mM sodium pyruvate, 2 mM L-glutamine and 1.5 g/L sodium bicarbonate. When cell reached 70-80% confluence, transfections were performed in T-175 culture flasks, using Lipofectamine 2000™ transfection reagent (Invitrogen) according to the manufacturer's directions. For the luciferase assay CHO-K1 cells were co-transfected the next day with 50 μg of pGAS-Luc, 70 μg of EphA4, and 5 μg of empty vector pRL-CMV, which encoded the Renilla luciferase, and was included in the transfection mix for normalization. Six hours after transfection the cells were trypsinized and plated at 4.105 cells/ml into 96 well Black/Clear Poly-D-Lysine coated plates (Biocoat) that had been pre-spotted with compounds. Cells were lysed the next day using the Reporter Lysis Buffer (Promega), and the luciferase activity was measured using the Dual Luciferase Assay (Promega) following the manufacturer's directions. The Firefly and Renilla luminescences are read consecutively on a Top-Count (Perkin-Elmer). Results are expressed as a ratio of the two luminescence: Firefly Luciferase/Renilla Luciferase. Cell viability was assessed on parallel plates using the Cell Glo Assay (Promega) following the manufacturer's directions. Results are expressed as percent of cell death in comparison with vehicle-treated wells.\n(§1) Compounds were titrated in duplicate at 10 points concentration starting at 100 μM with a 1.5 fold increment. Concentration-response curves were represented and the concentrations at the inflexion point (IP) were calculated. The maximum effect was given by the maximum percent inhibition calculated from the results of the control wells (containing only DMSO)."}, "[2]": {"system": "Jak2/Stat3 activation with Interferon Gamma in MCF-7 cells", "assay": "Cell-based counterscreen assay (IFN-γ activated Jak2/Stat3, pGAS-Luc in MCF-7 cells)", "conditions": "for IC50: Homo sapiens, MCF7, inflexion point, read-out: Cell Counter Screen Assay IP", "excerpt": "EphA4 cell-based assay was based on the signaling pathway of EphA4, which involves activation of the tyrosine kinase Jak2 and the transcriptional activator Stat3. However, pharmacological agents could also interfere downstream of EphA4 signaling and particularly on Jak2 activity. To counterscreen this potential effect unrelated to EphA4 activity, a new assay was designed based on direct activation of the tyrosine kinase Jak2 and the transcriptional activator Stat3 with Interferon Gamma (IFN-γ).\nMCF-7 cells were maintained in MEM growth media, supplemented with 10% fetal bovine serum, 2 mM L-glutamine, 1.5 g/L sodium bicarbonate, 0.1 mM non-essential amino acids, 1 mM sodium pyruvate, and 0.01 mg/ml bovine insulin. For the luciferase assay MCF-7 cells were co-transfected the next day with 50 μg of pGAS-Luc and 5 μg of empty vector pRL-CMV, which encoded the Renilla luciferase, and was included in the transfection mix for normalization. Six hours after transfection the cells were trypsinized and plated at 4.105 cells/ml into 96 well Black/Clear Poly-D-Lysine coated plates (Biocoat) that had been pre-spotted with compounds. IFN-γ (BD Pharmingen, USA) was then added to the wells. Cells were lysed the next day using the Reporter Lysis Buffer (Promega), and the luciferase activity was measured using the Dual Luciferase Assay (Promega) following the manufacturer's directions. The Firefly and Renilla luminescences are read consecutively on a Top-Count (Perkin-Elmer).\nResults are expressed as a ratio of the two luminescence: Firefly Luciferase/Renilla Luciferase. Cell viability was assessed on parallel plates using the Cell Glo Assay (Promega) following the manufacturer's directions. Results are expressed as percent of cell death in comparison with vehicle-treated wells.\nas §1"}, "[3]": {"system": "C2C12 cells", "assay": "Proliferation assay (cell confluence), C2C12 cells", "assay_type": "cell-based, mouse", "conditions": "at 5 μM", "description": "C2Cl2 were plated at 15,000 cells per well and then differentiated into myotubes with DMEM supplemented with 2% horse serum for 3 days in 24 well ImageLock™ plate (Essen Instruments, MI, USA). Primary Rat cortical astrocytes were plated at 3.105 cells/ml onto 24 well ImageLock™ plate.\nCells were placed into the IncuCyte™ at 37° C. and 95% CO2/5% O2, for two to three days. During this time, the cells within each well were repeatedly imaged at fixed time intervals (every three hours). The IncuCyte™ system automatically monitored the proliferation using the percentage of confluence. Percent of confluence can be graphed over time to evaluate the characteristics of proliferation in the presence of pharmacological agents.\nCompounds were tested at 5 μM in quadruplicate. The percentage of reduction of cell confluence was calculated from the AUCs in comparison with the AUCs of the control wells (1% DMSO)."}},
  "data": [
    {"smiles": "Cc1ccccc1-c1nc2[nH]nc(N)c2c2c1CCC(C)(C)C2", "note": "[Example 67]", "values": [
      {"measurement": "IC50", "setting": "[1]", "result": 2.3, "unit": "µM"},
      {"measurement": "EphA4 Cell Assay maximum percent inhibition", "setting": "[1]", "result": 46, "unit": "%"},
      {"measurement": "Cell Counter Screen Assay max inhibition in %", "setting": "[2]", "result": 81, "unit": "%"},
      {"measurement": "IC50", "setting": "[2]", "result": 13, "unit": "µM"},
      {"measurement": "% Reduction of Confluence C2C12 Cells", "setting": "[3]", "result": 49.2, "unit": "% at 5 μM"}
    ]},
    {"smiles": "CC1CCc2c(-c3ccccc3Cl)nc3[nH]nc(N)c3c2C1", "note": "(stereo not shown) [Example 63]", "values": [
      {"measurement": "IC50", "setting": "[1]", "result": 7.2, "unit": "µM"},
      {"measurement": "EphA4 Cell Assay maximum percent inhibition", "setting": "[1]", "result": 55, "unit": "%"},
      {"measurement": "Cell Counter Screen Assay max inhibition in %", "setting": "[2]", "result": 82, "unit": "%"},
      {"measurement": "IC50", "setting": "[2]", "result": 20, "unit": "µM"},
      {"measurement": "% Reduction of Confluence C2C12 Cells", "setting": "[3]", "result": 9.2, "unit": "% at 5 μM"}
    ]}
  ]
}
